Several values for one entry are separate records, joined by “and”; a condition that tells them apart may be missing. Identical values can stand only once.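 Test compounds were applied to cells in 96-well plates for 48 hours at 5 doses. GI50: concentration for 50% inhibition of growth. TGI: concentration producing complete growth inhibition.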
How the values were obtained:
Experiment in all cases: inhibition of tumour cell growth, NCI panel, 48 h
[1] = system: SF-295 CNS
[2] = system: KM12 colon
[3] = system: TK-10 renal
[4] = system: MDA-MB-231 breast
[5] = system: HT29 colon
[6] = system: HOP-62 NSCLC
[7] = system: HOP-92 NSCLC
[8] = system: COLO 205 colon
[9] = system: U251 CNS
[10] = system: SK-MEL-28 melanoma

Structure (SMILES) | GI50 [1] | TGI [1] | GI50 [2] | TGI [2] | GI50 [3] | TGI [3] | GI50 [4] | TGI [4] | GI50 [5] | TGI [5] | GI50 [6] | TGI [6] | GI50 [7] | TGI [7] | GI50 [8] | TGI [8] | GI50 [9] | TGI [9] | GI50 [10] | TGI [10]
CC(C)OC(=O)OCOP(=O)(OCOC(=O)OC(C)C)C1CCCN(O)C1=O (stereo unspecified) | 7.14 µM | > 100 µM | 0.879 µM | > 100 µM | 1.54 µM | > 100 µM | 0.632 µM | > 100 µM | 0.571 µM | > 100 µM | 2.12 µM | > 100 µM | 0.566 µM | 7.91 µM | 3.71 µM | > 100 µM | 1.76 µM | > 100 µM | 0.739 µM | 7.83 µM
CCCN1CCCC(c2ccc(Nc3nc(Nc4cc(F)ccc4C(N)=O)c4cc[nH]c4n3)c(OC)c2)C1 (stereo unspecified) | 3.42 µM | 7.16 µM | 2.72 µM | 5.86 µM | 0.622 µM | 4.39 µM | 3.28 µM | 7.7 µM | 0.0108 µM | 3.15 µM | 2.62 µM | 5.58 µM | 0.013 µM | 1.39 µM | 0.015 µM | 1.23 µM | 2.57 µM | 5.58 µM | 3.49 µM | 6.93 µM
CCn1nc(C#Cc2c(C)ccc3c(Nc4ccc(Cl)cc4)nccc23)c2c(N)ncnc21 | 2.48 µM | 11.6 µM | 3.79 µM | > 100 µM | 6.39 µM | > 100 µM | 1.89 µM | 27.8 µM | 2.32 µM | > 100 µM | 4.01 µM | 78 µM | 1.79 µM | 9.06 µM | 2.36 µM | > 100 µM | 4.43 µM | > 100 µM | 3.36 µM | > 100 µM
O=C(/C=C/c1ccccc1)c1ccccn1 | – | 33.9 µM and 59.9 µM | – | 34.2 µM and 28.5 µM | – | 31 µM and 36.9 µM | 15.6 µM and 35.8 µM | 30.7 µM and > 100 µM | – | 28.9 µM and 48.3 µM | 13.9 µM and 34.7 µM | 29.3 µM and > 100 µM | – | 53 µM | – | 32.9 µM and 45.7 µM | – | 30.5 µM and 35.9 µM | – | 40.7 µM and 81.5 µM
O=C(N=Nc1c(O)[nH]c2c(Cl)cc(Cl)cc12)C(=O)Nc1cccc(C(F)(F)F)c1 | – | > 100 µM | – | > 100 µM | – | > 100 µM | – | > 100 µM | – | > 100 µM | – | > 100 µM | – | > 100 µM | – | > 100 µM | – | > 100 µM | – | > 100 µM
COc1cccc(-c2cc(-c3ccc(Nc4nc(Nc5ccc(Cl)cc5)nc(Nc5ccc(Cl)cc5)n4)cc3)nc(N)c2C#N)c1 | 2.78 µM | 10.2 µM | 2.35 µM | 11.1 µM | 2.21 µM | 4.05 µM | 1.74 µM | 5.43 µM | 3.96 µM | 35.8 µM | 21.1 µM | 44.6 µM | 1.1 µM | 3.41 µM | 1.63 µM | 3.39 µM | 3.76 µM | > 37.5 µM | 1.9 µM | 3.98 µM
C=C(CN1CCc2ccccc2C1)c1ccc(C(=O)Nc2cccc(N)c2)cc1 | 20 µM | 51.2 µM | 16.5 µM | 33.7 µM | 27.3 µM | 92.5 µM | 18.1 µM | 44.8 µM | 20.4 µM | 94.7 µM | 25.6 µM | 68.4 µM | 63.9 µM | > 100 µM | 20.7 µM | 45.5 µM | 22.3 µM | 57.4 µM | 31.1 µM | > 100 µM
N#CCC1CCN(c2nc(Nc3ccc(N4CCC(O)CC4)cc3)c3c(=O)[nH]ncc3n2)CC1 | 1.44 µM | > 100 µM | 0.038 µM | > 100 µM | 0.306 µM | > 100 µM | 1.17 µM | > 100 µM | 0.283 µM | > 100 µM | 0.801 µM | > 100 µM | 0.239 µM | > 100 µM | 0.374 µM | – | 1.03 µM | > 100 µM | 1.2 µM | > 100 µM
CCOc1ccc(-c2nc3ccc(-c4nc5ccc(N6CCN(C)CC6)cc5[nH]4)cc3[nH]2)cc1OCC | 1.98 µM | 16.1 µM | 3.88 µM | 15.8 µM | 6.22 µM | 38.9 µM | 2.25 µM | 7.09 µM | 2.6 µM | 12.1 µM | 2.86 µM | 7.52 µM | 1.35 µM | 8.73 µM | 0.322 µM | 2 µM | 1.32 µM | 6.71 µM | 0.701 µM | 2.18 µM
C=C(C)[C@@H]1CC[C@]2(C(=O)OC)CC[C@]3(C)[C@H](CC[C@@H]4[C@@]5(C)CC/C(=N\OCCC(=NCCC#N)NOCCC#N)C(C)(C)[C@@H]5CC[C@]43C)[C@@H]12 | 21.4 µM | > 50 µM | 9.35 µM | > 50 µM | 13.8 µM | > 50 µM | 10.3 µM | > 50 µM | 6.7 µM | 26.2 µM | 12.5 µM | > 50 µM | 6.9 µM | 35 µM | 9.02 µM | > 50 µM | 4.3 µM | 12.4 µM | 17.1 µM | > 50 µM
OC1(c2ccccc2)c2ccccc2N(c2ccccc2)c2ccc(Cl)cc21 (stereo unspecified) | 0.575 µM | 2.27 µM | 0.296 µM | 0.845 µM | 0.3 µM | 1.01 µM | 0.231 µM | 0.626 µM | 0.283 µM | 0.918 µM | 0.328 µM | 1.23 µM | 0.214 µM | 0.703 µM | 0.147 µM | 0.338 µM | 0.201 µM | 0.536 µM | 0.193 µM | 0.434 µM
CC(C)c1c(C(=O)Nc2ccccc2)c(-c2ccccc2)c(-c2ccc(F)cc2)n1CC[C@@H](O)C[C@@H](O)CC(=O)O | 6.74 µM | > 60.6 µM | 40.2 µM | > 100 µM | 45.5 µM | > 100 µM | 1.61 µM | 6.63 µM | 50.3 µM | > 100 µM | 36 µM | > 100 µM | 0.211 µM | 2.14 µM | 24.5 µM | > 78.9 µM | 4.48 µM | > 100 µM | 18.2 µM | > 100 µM
FC(F)(F)c1ccc(-c2cnc(-c3nn[nH]n3)nc2NC2CCCCCC2)cc1 | > 10 µM | > 10 µM | > 10 µM | > 10 µM | > 10 µM | > 10 µM | > 10 µM | > 10 µM | > 10 µM | > 10 µM | > 10 µM | > 10 µM | > 10 µM | > 10 µM | > 10 µM | > 10 µM | > 10 µM | > 10 µM | > 10 µM | > 10 µM
C=CN(C(=O)N1CCN(c2cc3c(cc2F)c(=O)c(C(=O)O)cn3C2CC2)CC1)c1nc(-c2ccc(C)cc2)cs1 | 2.59 µM | 7.11 µM | 3.45 µM | > 100 µM | 3.89 µM | > 100 µM | 2.99 µM | > 100 µM | 3.31 µM | > 100 µM | 3.49 µM | > 100 µM | 1.13 µM | 4.39 µM | 2.09 µM | 4.72 µM | 3.39 µM | 11.6 µM | 4.49 µM | > 100 µM
C=C1C(=O)O[C@H]2[C@H]1CC/C(COC(=O)NCc1ccc(Cn3c(=O)sn(CCCI)c3=O)cc1)=C\CC[C@@]1(C)O[C@@H]21 | 14.4 µM | 30.8 µM | 7.98 µM | 24.8 µM | 1.71 µM | 3.35 µM | 1.75 µM | 3.56 µM | 1.74 µM | 3.31 µM | 13.5 µM | 27.4 µM | 1.22 µM | 2.83 µM | 1.95 µM | 3.66 µM | 1.75 µM | 3.68 µM | 1.92 µM | 3.79 µM
